Assay: xn = mol fraction of the nth substance listed
Details: 298.15 K, Liquid

CCCCCCCl [1-chlorohexane] + CCCCCCCC
mass density [kg/m3]
Details | x2 = 0 | x2 = 0.1016 | x2 = 0.1996 | x2 = 0.3153 | x2 = 0.3948 | x2 = 0.4862 | x2 = 0.5938 | x2 = 0.6966 | x2 = 0.794 | x2 = 0.9001
100 kPa | 873.42 | 852.6 | 833.25 | 811.26 | 796.69 | 780.47 | 762.03 | 745.09 | 729.61 | 713.36
2130 kPa | 874.73 | 854.08 | 834.69 | 812.8 | 798.13 | 781.96 | 763.56 | 746.66 | 731.16 | 714.88
4150 kPa | 876.45 | 855.81 | 836.43 | 814.54 | 799.88 | 783.71 | 765.29 | 748.4 | 732.88 | 716.61
6180 kPa | 878.31 | 857.67 | 838.25 | 816.37 | 801.68 | 785.49 | 767.08 | 750.15 | 734.61 | 718.33
8210 kPa | 879.79 | 859.18 | 839.81 | 817.9 | 803.24 | 787.05 | 768.66 | 751.72 | 736.21 | 719.94
10230 kPa | 881.44 | 860.8 | 841.43 | 819.53 | 804.88 | 788.69 | 770.3 | 753.38 | 737.85 | 721.55
11250 kPa | 882.22 | 861.6 | 842.23 | 820.34 | 805.7 | 789.48 | 771.11 | 754.16 | 738.66 | 722.34
12260 kPa | 883.01 | 862.42 | 843.03 | 821.13 | 806.5 | 790.3 | 771.9 | 754.95 | 739.44 | 723.13
14290 kPa | 884.61 | 864.01 | 844.63 | 822.72 | 808.08 | 791.9 | 773.49 | 756.55 | 741 | 724.69
16310 kPa | 886.16 | 865.53 | 846.17 | 824.27 | 809.62 | 793.43 | 775.01 | 758.05 | 742.51 | 726.2
18340 kPa | 887.68 | 867.07 | 847.69 | 825.8 | 811.15 | 794.94 | 776.55 | 759.59 | 744.03 | 727.69
20370 kPa | 889.18 | 868.58 | 849.18 | 827.29 | 812.64 | 796.42 | 778.03 | 761.06 | 745.51 | 729.16
22390 kPa | 890.65 | 870.05 | 850.64 | 828.77 | 814.1 | 797.89 | 779.48 | 762.51 | 746.97 | 730.59
24420 kPa | 892.14 | 871.52 | 852.13 | 830.22 | 815.56 | 799.35 | 780.91 | 763.95 | 748.37 | 732.01
26450 kPa | 893.54 | 872.95 | 853.55 | 831.64 | 816.97 | 800.75 | 782.33 | 765.32 | 749.76 | 733.39
28470 kPa | 894.96 | 874.35 | 854.96 | 833.04 | 818.37 | 802.14 | 783.71 | 766.73 | 751.13 | 734.74
29490 kPa | 895.65 | 875.05 | 855.64 | 833.73 | 819.06 | 802.85 | 784.39 | 767.4 | 751.81 | 735.41
30500 kPa | 896.32 | 875.72 | 856.33 | 834.42 | 819.73 | 803.52 | 785.07 | 768.07 | 752.47 | 736.07
32530 kPa | 897.71 | 877.11 | 857.7 | 835.79 | 821.11 | 804.86 | 786.42 | 769.4 | 753.8 | 737.38
34550 kPa | 899.05 | 878.46 | 859.03 | 837.12 | 822.43 | 806.19 | 787.72 | 770.72 | 755.08 | 738.69
36580 kPa | 900.38 | 879.77 | 860.35 | 838.43 | 823.74 | 807.48 | 789.01 | 772.01 | 756.36 | 739.94
38600 kPa | 901.69 | 881.06 | 861.67 | 839.72 | 825.03 | 808.77 | 790.32 | 773.27 | 757.63 | 741.21
39620 kPa | 902.33 | 881.71 | 862.31 | 840.38 | 825.68 | 809.4 | 790.96 | 773.9 | 758.25 | –
